In PubChem BioAssay (NCI):
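Values below derive from 48-hour exposures of cells grown in 96-well plates, with endpoints linearly interpolated between the two concentrations bracketing the appropriate inhibition level. GI50 marks 50% less growth. TGI: total growth inhibition.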

Columns and labels:
Assay in all cases: NCI tumour cell line growth inhibition, 48 h
BT-549 breast = test system: BT-549 breast
HT29 colon = test system: HT29 colon
UACC-257 melanoma = test system: UACC-257 melanoma
SK-MEL-28 melanoma = test system: SK-MEL-28 melanoma
OVCAR-8 ovarian = test system: OVCAR-8 ovarian
SN12C renal = test system: SN12C renal
HOP-62 NSCLC = test system: HOP-62 NSCLC
MALME-3M melanoma = test system: MALME-3M melanoma
PC-3 prostate = test system: PC-3 prostate
ACHN renal = test system: ACHN renal
786-0 renal = test system: 786-0 renal
SK-MEL-2 melanoma = test system: SK-MEL-2 melanoma
NCI-H522 lung = test system: NCI-H522 lung
EKVX NSCLC = test system: EKVX NSCLC
NCI/ADR-RES ovarian = test system: NCI/ADR-RES ovarian
HCT-116 colon = test system: HCT-116 colon
SK-OV-3 ovarian = test system: SK-OV-3 ovarian
UACC-62 melanoma = test system: UACC-62 melanoma
MDA-MB-231 breast = test system: MDA-MB-231 breast
RPMI-8226 leukemia = test system: RPMI-8226 leukemia
SK-MEL-5 melanoma = test system: SK-MEL-5 melanoma
T-47D breast = test system: T-47D breast
K-562 leukemia = test system: K-562 leukemia
HOP-92 NSCLC = test system: HOP-92 NSCLC
MCF7 breast = test system: MCF7 breast
A498 renal = test system: A498 renal
NCI-H23 lung = test system: NCI-H23 lung
MDA-MB-468 breast = test system: MDA-MB-468 breast
HCC-2998 colon = test system: HCC-2998 colon
TK-10 renal = test system: TK-10 renal
MDA-MB-435 = test system: MDA-MB-435
NCI-H226 lung = test system: NCI-H226 lung
HL-60(TB) leukemia = test system: HL-60(TB) leukemia
SNB-75 CNS = test system: SNB-75 CNS
SF-295 CNS = test system: SF-295 CNS
MOLT-4 leukemia = test system: MOLT-4 leukemia
KM12 colon = test system: KM12 colon
U251 CNS = test system: U251 CNS
A549 NSCLC = test system: A549 NSCLC
COLO 205 colon = test system: COLO 205 colon
LOX IMVI melanoma = test system: LOX IMVI melanoma
HCT-15 colon = test system: HCT-15 colon
CCRF-CEM leukemia = test system: CCRF-CEM leukemia
NCI-H460 lung = test system: NCI-H460 lung
DU-145 prostate = test system: DU-145 prostate
SR leukemia = test system: SR leukemia
M14 melanoma = test system: M14 melanoma
IGROV1 ovarian = test system: IGROV1 ovarian
SF-268 CNS = test system: SF-268 CNS
OVCAR-5 ovarian = test system: OVCAR-5 ovarian
HS 578T breast = test system: HS 578T breast
SF-539 CNS = test system: SF-539 CNS
OVCAR-3 ovarian = test system: OVCAR-3 ovarian
UO-31 renal = test system: UO-31 renal
SW-620 colon = test system: SW-620 colon
SNB-19 CNS = test system: SNB-19 CNS
OVCAR-4 ovarian = test system: OVCAR-4 ovarian
CAKI-1 renal = test system: CAKI-1 renal
RXF 393 renal = test system: RXF 393 renal

CC(C)(C)c1ccc(NCc2cn(-c3ccc(C(=O)O)cc3)nc2-c2ccc(C#N)cc2)cc1
GI50 (BT-549 breast): 6.77 µM
TGI (BT-549 breast): 22.4 µM
GI50 (HT29 colon): 5.75 µM
TGI (HT29 colon): 21.4 µM
GI50 (UACC-257 melanoma): 8.15 µM
TGI (UACC-257 melanoma): 42.8 µM
GI50 (SK-MEL-28 melanoma): 4.3 µM
TGI (SK-MEL-28 melanoma): 17.8 µM
GI50 (OVCAR-8 ovarian): 4.66 µM
TGI (OVCAR-8 ovarian): 17.4 µM
GI50 (SN12C renal): 7.81 µM
TGI (SN12C renal): 20.4 µM
GI50 (HOP-62 NSCLC): 5.28 µM
TGI (HOP-62 NSCLC): 20.8 µM
GI50 (MALME-3M melanoma): 11.3 µM
TGI (MALME-3M melanoma): 28.3 µM
GI50 (PC-3 prostate): 5.74 µM
TGI (PC-3 prostate): 31.1 µM
GI50 (ACHN renal): 6.12 µM
TGI (ACHN renal): 60.1 µM
GI50 (786-0 renal): 12.9 µM
TGI (786-0 renal): 27.6 µM
GI50 (SK-MEL-2 melanoma): 4.37 µM
TGI (SK-MEL-2 melanoma): 18.3 µM
GI50 (NCI-H522 lung): 10.1 µM
TGI (NCI-H522 lung): 27.8 µM
GI50 (EKVX NSCLC): 3.07 µM
TGI (EKVX NSCLC): 12.5 µM
GI50 (NCI/ADR-RES ovarian): 5.81 µM
TGI (NCI/ADR-RES ovarian): 23.4 µM
GI50 (HCT-116 colon): 4.45 µM
TGI (HCT-116 colon): 17.3 µM
GI50 (SK-OV-3 ovarian): 16.1 µM
TGI (SK-OV-3 ovarian): 34.5 µM
GI50 (UACC-62 melanoma): 5.48 µM
TGI (UACC-62 melanoma): 19 µM
GI50 (MDA-MB-231 breast): 12.2 µM
TGI (MDA-MB-231 breast): 27.5 µM
GI50 (RPMI-8226 leukemia): 3.91 µM
TGI (RPMI-8226 leukemia): 25.2 µM
GI50 (SK-MEL-5 melanoma): 3.58 µM
TGI (SK-MEL-5 melanoma): 13.5 µM
GI50 (T-47D breast): 4.57 µM
TGI (T-47D breast): > 100 µM
GI50 (K-562 leukemia): 3.48 µM
TGI (K-562 leukemia): 76.9 µM
GI50 (HOP-92 NSCLC): 8.12 µM
TGI (HOP-92 NSCLC): 23.3 µM
GI50 (MCF7 breast): 3.43 µM
TGI (MCF7 breast): 21.6 µM
GI50 (A498 renal): 11.1 µM
TGI (A498 renal): 23.4 µM
GI50 (NCI-H23 lung): 11.8 µM
TGI (NCI-H23 lung): 27.4 µM
GI50 (MDA-MB-468 breast): 10.1 µM
TGI (MDA-MB-468 breast): 34.3 µM
GI50 (HCC-2998 colon): 3.31 µM
TGI (HCC-2998 colon): 11.7 µM
GI50 (TK-10 renal): 13.7 µM
TGI (TK-10 renal): 31 µM
GI50 (MDA-MB-435): 6.31 µM
TGI (MDA-MB-435): 32.7 µM
GI50 (NCI-H226 lung): 10.8 µM
TGI (NCI-H226 lung): 35.6 µM
GI50 (HL-60(TB) leukemia): 2.83 µM
TGI (HL-60(TB) leukemia): 14.1 µM
GI50 (SNB-75 CNS): 6.97 µM
TGI (SNB-75 CNS): 21.3 µM
GI50 (SF-295 CNS): 5.35 µM
TGI (SF-295 CNS): 20.7 µM
GI50 (MOLT-4 leukemia): 4.34 µM
TGI (MOLT-4 leukemia): > 100 µM
GI50 (KM12 colon): 3.45 µM
TGI (KM12 colon): 13 µM
GI50 (U251 CNS): 4.64 µM
TGI (U251 CNS): 17.5 µM
GI50 (A549 NSCLC): 3.77 µM
TGI (A549 NSCLC): 17.1 µM
GI50 (COLO 205 colon): 3.18 µM
TGI (COLO 205 colon): 11.8 µM
GI50 (LOX IMVI melanoma): 7.3 µM
TGI (LOX IMVI melanoma): 20.3 µM
GI50 (HCT-15 colon): 3.36 µM
TGI (HCT-15 colon): 12.6 µM
GI50 (CCRF-CEM leukemia): 3.73 µM
TGI (CCRF-CEM leukemia): 36.8 µM
GI50 (NCI-H460 lung): 4.41 µM
TGI (NCI-H460 lung): 17 µM
GI50 (DU-145 prostate): 12.4 µM
TGI (DU-145 prostate): 38.2 µM
GI50 (SR leukemia): 3.03 µM
TGI (SR leukemia): 20.8 µM
GI50 (M14 melanoma): 7.28 µM
TGI (M14 melanoma): 25.9 µM
GI50 (IGROV1 ovarian): 10.7 µM
TGI (IGROV1 ovarian): 25.6 µM
GI50 (SF-268 CNS): 7.21 µM
TGI (SF-268 CNS): 26 µM
GI50 (OVCAR-5 ovarian): 14.2 µM
TGI (OVCAR-5 ovarian): 28.7 µM
GI50 (HS 578T breast): 3.54 µM
TGI (HS 578T breast): 27.2 µM
GI50 (SF-539 CNS): 5.96 µM
TGI (SF-539 CNS): 19.7 µM
GI50 (OVCAR-3 ovarian): 6.86 µM
TGI (OVCAR-3 ovarian): 21.9 µM
GI50 (UO-31 renal): 6.5 µM
TGI (UO-31 renal): 21.1 µM
GI50 (SW-620 colon): 7.65 µM
TGI (SW-620 colon): 25.1 µM
GI50 (SNB-19 CNS): 4.44 µM
TGI (SNB-19 CNS): 16.8 µM
GI50 (OVCAR-4 ovarian): 6.23 µM
TGI (OVCAR-4 ovarian): > 100 µM
GI50 (CAKI-1 renal): 8.23 µM
TGI (CAKI-1 renal): 26.3 µM
GI50 (RXF 393 renal): 6.94 µM
TGI (RXF 393 renal): 21.4 µM
